Assay results published in patent US20240277683A1, “COMPOUNDS” (CTXT PTY LTD, priority 2018, published 2024).
Like-named read-outs stand apart in the source and are kept apart here.

Key:
Format in all cases: cell-based
Details in all cases: Homo sapiens
[1] = tested on: acetylation of the histone H3K23 marker in U2OS cells; assay: Histone H3 Lysine 23 Acetylation Biomarker Assay
Procedure: Compounds may be tested for their ability to inhibit acetylation of the histone H3K23 marker in the following assay:
The cell line U2OS was seeded at a density of 9,000 cells per well in 96 well optical quality tissue culture plates in RPMI medium and 10% foetal bovine serum, and allowed to adhere for 24 hours under standard culture conditions (37 degree Celsius, 5% CO2). At the end of this period the medium was aspirated. […] After incubation for 24 hours, the cells were fixed with 3.7% formaldehyde in PBS for 20 minutes at room temperature, washed (5×5 minutes) with phosphate buffer saline containing 0.1% Tween 20 and blocked with Odyssey blocking buffer (LI-COR, Lincoln, NE) containing 0.1% TritonX100. Anti-H3K23ac specific antibody (Abcam ab177275) in Odyssey blocking buffer containing 0.1% Tween 20 was added and incubated for 16 hours at 4 degree Celsius. […] Plates were washed as previously and read on a PerkinElmer Phenix high content imaging platform.

[2] = tested on: acetylation of the histone H3 Lysine 14 marker in U2OS cells; assay: Histone H3 Lysine 14 Acetylation Biomarker Assay
Procedure: Compounds may be tested for their ability to inhibit acetylation of the histone H3 Lysine 14 marker in the following assay:
(§1) The cell line U2OS was seeded at a density of 3,000 cells per well in 384-well optical quality tissue culture plates in RPMI medium supplemented with 10% foetal bovine serum and 10 mM Hepes. The cells were allowed to adhere for 24 hours under standard culture conditions (37 degree Celsius, 5% CO2). At the end of this period the cells were washed with serum free medium. […] Plates were washed and read on a PerkinElmer Opera HCS high content imaging platform.

[3] = tested on: histone H2A.Z Lysine 7 acetylation marker in U2OS cells; assay: H2A.Z Lysine 7 Acetylation Biomarker Assay
Procedure: Compounds may be tested for their ability to inhibit the histone H2A.Z Lysine 7 acetylation marker in the following assay:
as §1

[4] = H3K23ac, U2OS cells, 24 hours, read-out: IC50
[5] = H3K14ac, U2OS cells, serum free medium, 24 hours, read-out: IC50
[6] = H2A.ZK7ac, U2OS cells, serum free medium, 24 hours, read-out: IC50

Row | IC50 [1, 4] [µM] | IC50 [2, 5] [µM] | IC50 [3, 6] [µM] | SMILES | IC50 ([1]; U2OS, 24 h) [µM] | IC50 ([2]; U2OS, 24 h) [µM] | IC50 ([3]; U2OS, 24 h) [µM]
1 | – | – | – | COc1ccccc1-c1cc(NS(=O)(=O)CCc2ccccc2)no1 [Example 4, N-(5-(2-Methoxyphenyl)isoxazol-3-yl)-2-phenylethane-1-sulfonamide] | > 10 | – | –
2 | 0.0693 | – | – | COCc1ccc(OC)cc1-c1cc(NS(=O)(=O)c2c(OC)cccc2OC)no1 [Example 71, 2,6-Dimethoxy-N-(5-(5-methoxy-2-(methoxymethyl)phenyl)isoxazol-3-yl)benzenesulfonamide] | – | – | –
3 | – | – | – | COc1ccccc1-c1cc(NS(=O)(=O)NC2CCCCC2)no1 [Example 117, N-Cyclohexyl((5-(2-methoxyphenyl)-1,2-oxazol-3-yl)amino)sulfonamide] | 5.56 | – | –
4 | – | – | – | COc1ccc(S(=O)(=O)Nc2cc(-c3ccccc3OC)on2)c(OC)c1 [Example 57, 2,4-Dimethoxy-N-(5-(2-methoxyphenyl)isoxazol-3-yl)benzenesulfonamide] | – | > 40 | –
5 | – | – | – | COc1ccccc1-c1cc(NS(=O)(=O)c2ccccc2)no1 [Example 3, N-(5-(2-Methoxyphenyl)isoxazol-3-yl)benzenesulfonamide] | > 10 | 39.2 | > 40
6 | – | – | – | COc1ccccc1-c1cc(NS(=O)(=O)Cc2ccccc2)no1 [Example 2, N-(5-(2-Methoxyphenyl)isoxazol-3-yl)-1-phenylmethanesulfonamide] | > 10 | – | –
7 | – | – | – | CCc1ccc(OC)c(S(=O)(=O)Nc2cc(-c3ccc(OC)cc3OC)on2)c1 [Example 12, N-(5-(2,4-Dimethoxyphenyl)isoxazol-3-yl)-5-ethyl-2-methoxybenzenesulfonamide] | – | > 40 | > 40
8 | – | > 40 | > 40 | COc1cc(Cl)ccc1-c1cc(NS(=O)(=O)c2c(OC)cccc2OC)no1 [Example 21, N-(5-(4-Chloro-2-methoxyphenyl)isoxazol-3-yl)-2,6-dimethoxybenzenesulfonamide] | – | – | –
9 | – | – | – | COc1ccc(C2CC2)cc1-c1cc(NS(=O)(=O)c2c(OC)cccc2OC)no1 [Example 8, N-(5-(5-Cyclopropyl-2-methoxyphenyl)isoxazol-3-yl)-2,6-dimethoxybenzenesulfonamide] | 0.0518 | 0.345 | 3.27
10 | – | – | – | COc1ccccc1-c1cc(NS(=O)(=O)Nc2ccccc2)no1 [Example 116, N-Phenyl((5-(2-methoxyphenyl)-1,2-oxazol-3-yl)amino)sulfonamide] | > 20 | > 40 | > 40
11 | > 10 | – | 5.42 | COc1ccc(CC2CCCCC2)cc1-c1cc(NS(=O)(=O)c2c(OC)cccc2OC)no1 [Example 19, N-(5-(5-(Cyclohexylmethyl)-2-methoxyphenyl)isoxazol-3-yl)-2,6-dimethoxybenzenesulfonamide] | – | – | –
12 | 0.187 | – | – | COCc1ccc(OC)c(-c2cc(NS(=O)(=O)Cc3ccccc3)no2)c1 [Example 112, N-(5-(2-Methoxy-5-(methoxymethyl)phenyl)isoxazol-3-yl)-1-phenylmethanesulfonamide] | – | – | –
13 | 0.475 | – | – | COc1cccc(OC)c1S(=O)(=O)Nc1nnc(-c2cc(Cl)ccc2OC(C)C)s1 [Example 111, N-(5-(5-Chloro-2-isopropoxyphenyl)-1,3,4-thiadiazol-2-yl)-2,6-dimethoxybenzenesulfonamide] | – | – | –
14 | – | – | – | COc1ccccc1-c1cc(NS(=O)(=O)c2c(OC)cccc2OC)no1 [Example 56, 2,6-Dimethoxy-N-(5-(2-methoxyphenyl)isoxazol-3-yl)benzenesulfonamide] | 2.07 | 2.64 | 24.1
15 | 0.275 | – | – | COc1ccc(OC)c(-c2nnc(NS(=O)(=O)c3c(OC)cccc3OC)s2)c1 [Example 70, N-(5-(2,5-Dimethoxyphenyl)-1,3,4-thiadiazol-2-yl)-2,6-dimethoxybenzenesulfonamide] | – | – | –
16 | 0.634 | – | – | COc1ccc(-c2ccnn2C)cc1-c1cc(NS(=O)(=O)c2c(OC)cccc2OC)no1 [Example 119, 2,6-Dimethoxy-N-(5-(2-methoxy-5-(1-methyl-1H-pyrazol-5-yl)phenyl)isoxazol-3-yl)benzenesulfonamide] | – | – | –
17 | 0.141 | 0.45 | 12.1 | COc1ccc(Cl)cc1-c1cc(NS(=O)(=O)c2c(OC)cccc2OC)no1 [Example 15, N-(5-(5-Chloro-2-methoxyphenyl)isoxazol-3-yl)-2,6-dimethoxybenzenesulfonamide] | – | – | –

Row | IC50 [1, 4] [µM] | IC50 [2, 5] [µM] | IC50 [3, 6] [µM] | SMILES | IC50 ([1]; U2OS, 24 h) [µM] | IC50 ([2]; U2OS, 24 h) [µM] | IC50 ([3]; U2OS, 24 h) [µM]
18 | – | – | – | CCc1ccc(OC)c(S(=O)(=O)Nc2cc(-c3ccccc3OC)on2)c1 [Example 58, 5-Ethyl-2-methoxy-N-(5-(2-methoxyphenyl)isoxazol-3-yl)benzenesulfonamide] | – | 22.4 | > 40
19 | 3.94 | 7.38 | 27.2 | COCc1ccc(OC)cc1-c1nnc(NS(=O)(=O)c2c(OC)cccc2OC)s1 [Example 96, 2,6-Dimethoxy-N-(5-(5-methoxy-2-(methoxymethyl)phenyl)-1,3,4-thiadiazol-2-yl)benzenesulfonamide] | – | – | –
20 | – | – | – | COc1ccc(OC)c(-c2cc(NS(=O)(=O)c3c(OC)cc(-c4ccccc4)cc3OC)no2)c1 [Example 6, N-(5-(2,5-Dimethoxyphenyl)isoxazol-3-yl)-3,5-dimethoxy-[1,1′-biphenyl]-4-sulfonamide] | 0.471 | 0.526 | 1.35
21 | – | – | – | COc1ccccc1-c1cc(NS(=O)(=O)c2c(OC)ccc(-c3ccccc3)c2OC)no1 [Example 10, 2,4-Dimethoxy-N-(5-(2-methoxyphenyl)isoxazol-3-yl)-[1,1′-biphenyl]-3-sulfonamide] | – | 4.14 | > 40
22 | 0.178 | 0.216 | 9.99 | CCc1ccc(OC)cc1-c1cc(NS(=O)(=O)c2c(OC)cccc2OC)no1 [Example 23, N-(5-(2-Ethyl-5-methoxyphenyl)isoxazol-3-yl)-2,6-dimethoxybenzenesulfonamide] | – | – | –
23 | – | – | – | COc1ccc(OC)c(-c2cc(NS(=O)(=O)c3c(OC)cccc3OC)no2)c1 [Example 7, N-(5-(2,5-Dimethoxyphenyl)isoxazol-3-yl)-2,6-dimethoxybenzenesulfonamide] | 0.0491 | 0.496 | 2.19
24 | – | – | – | COCc1ccc(OC)c(-c2cc(NS(=O)(=O)c3c(OC)cccc3OC)no2)c1 [Example 73, 2,6-Dimethoxy-N-(5-(2-methoxy-5-(methoxymethyl)phenyl)isoxazol-3-yl)benzenesulfonamide] | 0.0171 | 1.29 | 35.2
25 | 0.117 | 0.193 | 1.77 | CCOc1ccc(OC)cc1-c1cc(NS(=O)(=O)c2c(OC)cccc2OC)no1 [Example 16, N-(5-(2-Ethoxy-5-methoxyphenyl)isoxazol-3-yl)-2,6-dimethoxybenzenesulfonamide] | – | – | –
26 | 0.133 | 0.22 | 2.5 | COc1ccc(OC(C)C)c(-c2cc(NS(=O)(=O)c3c(OC)cccc3OC)no2)c1 [Example 14, N-(5-(2-Isopropoxy-5-methoxyphenyl)isoxazol-3-yl)-2,6-dimethoxybenzenesulfonamide] | – | – | –
27 | 1.53 | 3.84 | 19.9 | COc1ccc(-c2ncco2)cc1-c1cc(NS(=O)(=O)c2c(OC)cccc2OC)no1 [Example 18, 2,6-Dimethoxy-N-(5-(2-methoxy-5-(oxazol-2-yl)phenyl)isoxazol-3-yl)benzenesulfonamide] | – | – | –
28 | – | – | – | COc1cccc(OC)c1S(=O)(=O)Nc1cc(-c2ccccc2OC(F)(F)F)on1 [Example 22, 2,6-Dimethoxy-N-(5-(2-(trifluoromethoxy)phenyl)isoxazol-3-yl)benzenesulfonamide] | 2.13 | 0.762 | 4.77
29 | 0.173 | 3 | 17.1 | COc1ccc(-n2cccn2)cc1-c1cc(NS(=O)(=O)c2c(OC)cccc2OC)no1 [Example 105, 2,6-Dimethoxy-N-(5-(2-methoxy-5-(1H-pyrazol-1-yl)phenyl)isoxazol-3-yl)benzenesulfonamide] | – | – | –
30 | – | – | – | CCOc1ccccc1-c1cc(NS(=O)(=O)c2c(OC)cccc2OC)no1 [Example 5, N-(5-(2-Ethoxyphenyl)isoxazol-3-yl)-2,6-dimethoxybenzenesulfonamide] | 0.895 | 2.33 | 5.64
31 | – | 25.6 | > 40 | COc1ccccc1-c1cc(NS(=O)(=O)C2CCCCC2)no1 [Example 102, N-(5-(2-Methoxyphenyl)isoxazol-3-yl)cyclohexanesulfonamide] | – | – | –
32 | – | – | – | COc1ccccc1-c1cc(NS(=O)(=O)c2c(OC)cc(-c3ccccc3)cc2OC)no1 [Example 11, 3,5-Dimethoxy-N-(5-(2-methoxyphenyl)isoxazol-3-yl)-[1,1′-biphenyl]-4-sulfonamide] | – | 2.74 | 5.32
33 | – | – | – | CCc1ccc(OC)c(S(=O)(=O)Nc2cc(-c3cccc(OC)c3)on2)c1 [Example 13, 5-Ethyl-2-methoxy-N-(5-(3-methoxyphenyl)isoxazol-3-yl)benzenesulfonamide] | – | 22.4 | –
